According to PubChem BioAssay (NCI):
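All cell lines were grown in 96-well plates and treated with compound for 48 hours. TGI denotes the concentration required for complete inhibition of growth.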 Where a SMILES comes first, the peptide text is derived from it. The star is where a group is joined. Cbz = O=C(OCc1ccccc1)*; Boc = CC(C)(C)OC(=O)*; Bn = c1ccc(C*)cc1

Key:
Assay in all cases: inhibition of tumour cell growth, NCI panel, 48 h
HOP-92 NSCLC = system: HOP-92 NSCLC
OVCAR-8 ovarian = system: OVCAR-8 ovarian
SW-620 colon = system: SW-620 colon
IGROV1 ovarian = system: IGROV1 ovarian
SK-MEL-2 melanoma = system: SK-MEL-2 melanoma
TK-10 renal = system: TK-10 renal
MDA-MB-231 breast = system: MDA-MB-231 breast
SN12C renal = system: SN12C renal
MDA-N = system: MDA-N
MCF7 breast = system: MCF7 breast
A549 NSCLC = system: A549 NSCLC
786-0 renal = system: 786-0 renal
NCI-H23 lung = system: NCI-H23 lung
BT-549 breast = system: BT-549 breast
NCI-H460 lung = system: NCI-H460 lung
SF-268 CNS = system: SF-268 CNS
SF-295 CNS = system: SF-295 CNS
SF-539 CNS = system: SF-539 CNS
OVCAR-3 ovarian = system: OVCAR-3 ovarian

SMILES	TGI (HOP-92 NSCLC) [µM]	TGI (OVCAR-8 ovarian) [µM]	TGI (SW-620 colon) [µM]	TGI (IGROV1 ovarian) [µM]	TGI (SK-MEL-2 melanoma) [µM]	TGI (TK-10 renal) [µM]	TGI (MDA-MB-231 breast) [µM]	TGI (SN12C renal) [µM]	TGI (MDA-N) [µM]	TGI (MCF7 breast) [µM]	TGI (A549 NSCLC) [µM]	TGI (786-0 renal) [µM]	TGI (NCI-H23 lung) [µM]	TGI (BT-549 breast) [µM]	TGI (NCI-H460 lung) [µM]	TGI (SF-268 CNS) [µM]	TGI (SF-295 CNS) [µM]	TGI (SF-539 CNS) [µM]	TGI (OVCAR-3 ovarian) [µM]
CC(C)(C)OC(=O)NC(Cc1ccc(OCc2ccccc2)cc1)C(=O)NC(CCCCNC(=O)OCc1ccccc1)C(=O)O (stereo unspecified) (Boc-Tyr(Bn)-Lys(Cbz)-OH; configuration not given here)	48.5	> 100	> 100	> 100	80	> 100	> 100	> 100	> 100	> 100	> 100	> 100	> 100	60.8					
COC(=O)[C@@H](O)[C@]1(C(=O)OC)C2O[C@@H](OC)[C@@H]1CCCCCC[C@H]2O		> 100	> 100	> 100	> 100	> 100	> 100	> 100	> 100		> 100	> 100	> 100	> 100	> 100	> 100	> 100	> 100	> 100
CCN(CCCN(CC)C(=O)Nc1ccccc1)C(=O)Nc1ccccc1	> 100	> 100	> 100	> 100	> 100	> 100	> 100	> 100	> 100	> 100	> 100	> 100	> 100	> 100	> 100		> 100	> 100	> 100
CC(=O)CCC(=O)C(=[N+]=[N-])S(=O)(=O)c1ccccc1		> 100	> 100	> 100	> 100	> 100	> 100	> 100	> 100	> 100	> 100	> 100	> 100	> 100	> 100	> 100	> 100	> 100	> 100
OCC1OC(Oc2cc(O)cc(/C=C/c3ccc(O)cc3)c2)C(O)C(O)C1O (stereo unspecified)	> 100	> 100	> 100	> 100	> 100	> 100	> 100	> 100	> 100	> 100	> 100	> 100		> 100	> 100		> 100	> 100	> 100
CCOP(=O)(OCC)C(Nc1cccc([N+](=O)[O-])c1)c1ccccc1 (stereo unspecified)	> 100			25.5	> 100	> 100	> 100	> 100	> 100	> 100	> 100	> 100	> 100	> 100	> 100	> 100	> 100	> 100	> 100
Cc1nc2ccc(F)cc2c2c1CCO2	> 100	> 100	> 100	> 100	> 100	> 100	93.6	> 100	> 100		> 100	> 100	> 100	> 100	> 100	> 100	> 100	> 100	
CCO[C@@H]1CCC(S(=O)c2ccc(C)cc2)=CO1 (stereo partly specified)		> 100	> 100	> 100	> 100	> 100	> 100	> 100	> 100	> 100		> 100	> 100	> 100	> 100	> 100	> 100		> 100
COC(=O)C12OC(C)(C(CC(=O)OC(C)(C)C)C1=O)C1C(=O)N(c3ccccc3)C(=O)C12 (stereo unspecified)	> 100	> 100	> 100	> 100	> 100	> 100	> 100	> 100	> 100		> 100	> 100	> 100	> 100	> 100	> 100	> 100		> 100
CCN1CN(c2ccccc2)C2(CCN(CCCSc3ccc(F)cc3)CC2)C1=O		30.5	26.1	19.7		26.3	29	20.5	26.4	12.2	21.2	26.6	24.1	21.4		28.3	25.7	21.5	27.2
O=C(c1ccco1)n1c2ccc(Br)cc2c2nc3ccccc3nc21	> 100	> 100	> 100	> 100	> 100	> 100		> 100	> 100	> 100		51	> 100	> 100	> 100	> 100	> 100	> 100	> 100
Cc1cnc(/N=c2\sc(C)cn2-c2ncc(C)s2)s1	> 100	> 100	> 100	> 100		> 100	> 100	> 100	> 100	> 100	> 100	> 100	> 100	> 100	> 100	> 100	> 100	> 100	> 100
CN=CN(C)c1c2ccccc2nc2ccccc12	> 100	> 100	> 100	> 100	> 100	> 100	> 100	> 100	> 100	> 100	> 100	> 100	> 100		> 100	> 100	> 100	> 100	> 100
CCCCn1cnnc1NS(=O)(=O)c1cc(C)c(Cl)cc1SCC(=O)O		> 10	> 10	> 10	> 10	> 10	> 10	> 10	> 10		> 10	> 10	> 10	> 10	> 10	> 10	> 10	> 10	> 10
O=C1/C(=C/c2ccc3c(c2)OCO3)CCC1CN1CCOCC1 (stereo unspecified)	29.3	21.4	4.83	40.1	28.6	21.6	7.73	12	4.07		43.3	11.3	25.1	42.1	33.4	28.8	33.7	28.1	20.5
O=C1NC(=S)NC(=O)C1C(c1ccc([N+](=O)[O-])cc1)C1C(=O)NC(=S)NC1=O	> 100	> 100	> 100	> 100	> 100	> 100	> 100	> 100	> 100	> 100	> 100	> 100	> 100	> 100	> 100		> 100		> 100
c1ccc(-c2cs[s+]c2)cc1	> 100	> 100	> 100	> 100		> 100	> 100	> 100	> 100	> 100	> 100	> 100	> 100	> 100	> 100	> 100	> 100		> 100
C=C(C(=O)O)C1CCC(CC/C=C(\C)CC/C=C(\C)CCC=C(C)C)CO1 (stereo unspecified)		39.9	33.4	39.3	60.4	81.8	> 100	34.3	27.8	32.6	32.4	28.1	40.5	61.8		> 100	42.8	32.4	
N#CCC(=O)c1cc(OCc2cc(OCc3ccc(Br)cc3)cc(OCc3ccc(Br)cc3)c2)cc(OCc2cc(OCc3ccc(Br)cc3)cc(OCc3ccc(Br)cc3)c2)c1	> 100				> 100	> 100	> 100	> 100	> 100	> 100	> 100	> 100	> 100	> 100	> 100	> 100	> 100		> 100
CCOP1(=O)C=C(Sc2ccc([N+](=O)[O-])cc2[N+](=O)[O-])C(C)(C)O1 (stereo unspecified)	25.3	35.4	> 52.2	30.4	35.3	31.3		41	17.6	17.2	44.3	23.6	46.3	32.2	49.2	49.5	40.8	27.5	25.9
CC1(C)C2CCC(N)(C2)C1N (stereo unspecified)	> 100	> 100	> 100	> 100	> 100	> 100		> 100	> 100	> 100	> 100	> 100	> 100	> 100	> 100		> 100		> 100
O=C1CCCCC1=C(I)I	29	> 100	31.2	30.4	31.8			55.6	31.3		> 100	31.9		26.8	44.1	57.2	65.8	36.6	30.3
Cc1nc(-n2[nH]c(C)c(CCO)c2=O)[nH]c(=O)c1CCO	> 100	> 100	> 100	> 100		> 100	> 100	> 100	> 100	> 100	> 100	> 100	> 100	> 100	> 100	> 100	> 100	> 100	> 100
CC(C)(C)[Si](C)(C)OCC1OC(n2ccc(=O)[nH]c2=O)C(O[Si](C)(C)C(C)(C)C)[C@@]12O[C@H]2C(N)=O (stereo partly specified)		32.5	42.5	8.66	34.6	48.3	21.7	30.3	24.1	18.7	25.9	29.9	28.7	40.2	20.4	28.2	17	13.4	25.9
COC(=O)C1CC=C(SC(=O)c2ccccc2)N1C(=O)c1ccccc1 (stereo unspecified)	> 100	> 100	> 100	> 100	> 100	> 100	> 100		> 100	> 100	> 100	> 100	> 100	> 100	> 100	> 100	> 100		> 100
C/C(=N\NC(=S)NC1CCCC1)c1ccccn1		> 22.4	> 100	> 44.1	> 100	> 100	> 57.2	> 100	35.4	28.7	> 53.6	> 100	> 100	63.9	> 19.9	> 100	> 43.6	7.52	10.3
Cc1cc(C)nc(NC(=S)Nc2ccccc2Cl)c1		> 100	> 100	> 100	> 100	> 100		> 100	> 100	> 100	> 100	> 100		> 100	> 100	> 100	> 100	> 100	> 100
